Measurements: US20220324809A1, “ATP-REGULATED POTASSIUM CHANNEL OPENERS AND USES THEREOF” (SALZMAN GROUP LTD., priority 2019, published 2022)

Key:
Assay type in all cases: in vivo, Sprague-Dawley rats
MCT-induced PH [1] = test: Single IV administration of R-1703 in rat treatment model of MCT-induced PH (acute and sustained effect)
Description: An established rat model for PH utilizes monocrotaline (MCT), a toxin derived from plants of the Crotalaria species, which causes pulmonary arterial endothelial cell injury and subsequent pulmonary artery smooth muscle hypertrophy. This model serves as a tool for assessing an immediate vasorelaxation effect by monitoring real-time right ventricular pressure in rats with PAH (late intervention regimen), as well as assessment of efficacy in a prevention of vascular remodeling progression (early intervention regimen). In the latter mode, weight ratios of left and right ventricles and histopathological assessment of right ventricular hypertrophy are used to evaluate the extent of fibrosis. R-1703 is effective in acutely treating a rodent model of MCT-induced PH. Sprague-Dawley rats (n=3 per group) were treated with a single subcutaneous (SC) injection of MCT with 60 mg/kg or an equivalent volume of saline (2 mL/kg). After a post-MCT period of 28 days wherein rats developed severe and stable PH, rats were anesthetized and endotracheally intubated, followed by a single intravenous (IV) administration of R-1703 (15, 30, 60, and 90 μg/kg, in PBS) via the tail vein. Vehicle controls received an equivalent volume of PBS. MCT induced a large increase in MPAP (from 25 to 50 mmHg). […] The experiments shown below have been repeated three times and are reproducible.

MCT-induced PH [2] = test: Prophylactic daily IP R-1703 in rat model of MCT-induced PH; conditions: 50 micrograms per kg IP daily, measured 28 days post-MCT, p<0.001, FIG. 4
Description: Sprague-Dawley rats (n=3 per group) were treated with a single SC injection of MCT with 60 mg/kg or an equivalent volume of saline (2 mL/kg). Rats were then treated daily with 50 micrograms per kg of R-1703 by an intraperitoneal (IP) route of administration. After a post-MCT period of 28 days wherein vehicle control treated rats develop severe and stable PH, rats were anesthetized and endotracheally intubated.

MCT-induced PH [3] = test: Intratracheal aerosolized R-1703 in rat treatment model of MCT-induced PH: sustained effect
Description: (§1) Intratracheal aerosolized R-1703 is effective in a rodent treatment model of MCT-induced PH: Sustained effect. 28 days after injection of MCT (60 mg/kg SC) and development of severe and stable PH, mechanically ventilated and anaesthetized Sprague-Dawley rats were dosed IT with aerosolized solution (2.0 mL) delivering 0.6, 6.0, or 30 micrograms per kg of R-1703 in PBS. Vehicle controls received an equivalent volume of PBS. MCT induced a large increase in MPAP.

MCT-induced PH [4] = test: Intratracheal aerosolized R-1703 in rat treatment model of MCT-induced PH: acute effect
Description: as §1, with “Intratracheal (IT)” for “Intratracheal”, “Acute” for “Sustained”, “containing 500” for “delivering 0.6, 6.0,”, “5000 ng/mL” for “30 micrograms per kg”

[5] = IT aerosol 0.6, 6.0 or 30 micrograms per kg

In the case of `CCC(C)(C)N/C(=N\C#N)Nc1cncc(C(=O)NCCO)c1` [R-1703], the “effect on heart rate” value (MCT-induced PH [1]; IV 15-90 μg/kg) is reported as “no effect”, the “effect on peripheral blood pressure” value (MCT-induced PH [1]; IV 15-90 μg/kg) is reported as “no effect” and the “persistence of effect on MPAP post dose” value (MCT-induced PH [1]; IV, FIG. 1B) is reported as “at least 24 h”. For the same compound, the “persistence of effect on MPAP after administration” value (MCT-induced PH [1]; IV, FIG. 1B legend) was “at least 24 hours”, the “effect on MCT-induced elevation in MPAP” value (MCT-induced PH [1]; single IV 15, 30, 60, 90 μg/kg in PBS, 28 days post-MCT) was “dose-dependently reduced the MCT-induced elevation in MPAP” and the “restoration of normal pressures (MPAP)” value (MCT-induced PH [1]; single IV dose 90 μg/kg, 28 days post-MCT, p<0.000005, FIG. 1A) was 100%. For the same compound, the “restoration of normal pressures (MPAP)” value (MCT-induced PH [2]) was 80%, the “effect on heart rate” value (MCT-induced PH [3]; [5]) was “no effect” and the “effect on peripheral blood pressure” value (MCT-induced PH [3]; [5]) was “no effect”. For the same compound, the “effect on MCT-induced elevation in MPAP” value (MCT-induced PH [3]; IT aerosol delivering 0.6, 6.0 or 30 micrograms per kg, sustained effect, p<0.001, FIG. 3) was “dose-dependently reduced the MCT-induced elevation in MPAP”, the “effect on heart rate” value (MCT-induced PH [4]; IT aerosol 500 or 5000 ng/mL) was “no effect” and the “effect on peripheral blood pressure” value (MCT-induced PH [4]; IT aerosol 500 or 5000 ng/mL) was “no effect”. The “effect on MCT-induced elevation in MPAP” value (MCT-induced PH [4]; IT aerosolized solution 2.0 mL, 500 or 5000 ng/mL, acute effect, p<0.001, FIG. 2) was “dose-dependently reduced the MCT-induced elevation in MPAP”.
